Test system: Plasmodium berghei
Assay: Luciferase/luciferin-expressing antifolate-resistant parasites were used to infect a culture of HepG2 cells that were pre-incubated with compounds. Infected hepatocytes emit light due to the luciferase reaction. Assay results are presented as the percent inhibition of light emission compared to control. […]
Assay type: functional
Details: sporozoite; for IC90: read-out: LUCIFERASE INFECTION ASSAY - IC90
[1] = read-out: LUCIFERASE INFECTION ASSAY - IC50

Row | SMILES | IC90 [µM] | IC50 [1] [µM] | also measured
1 | CN1C(=O)N(Cc2ccc3ccccc3c2)C(=O)C12CCN(Cc1ccc(C#CC(C)(C)O)cc1)CC2 | 2.84 | – | IC50 (HEPG2TOX_HILL_SLOPE 3.16, HEPG2TOX_R_SQUARED 0.979, PBLUC_HILL_SLOPE 9.91, PBLUC_R_SQUARED 0.437, read-out: LUCIFERASE INFECTION ASSAY - IC50): 2.27 µM
2 | CC(C)Sc1nnc(CSc2nc3ccccc3s2)n1C | 3.94 | – | IC50 (PBLUC_HILL_SLOPE 13.4, PBLUC_R_SQUARED 0.563, read-out: LUCIFERASE INFECTION ASSAY - IC50): 3.35 µM
3 | O=C(NCCSCc1csc2ccc(Cl)cc12)Nc1ccc(Cl)cc1 | > 8.02 | > 8.02 | –
4 | COc1cccc(-c2nc(-c3ccc(O)cc3O)cs2)c1OC | > 10 | – | IC50 (HEPG2TOX_HILL_SLOPE 1.65, HEPG2TOX_R_SQUARED 0.767, read-out: LUCIFERASE INFECTION ASSAY - IC50): > 10 µM
5 | O=C(CN1CCC(NC(=O)c2cn(-c3ccccc3)nc2-c2cccs2)CC1)Nc1ccccc1 | > 10 | > 10 | –
6 | CN(C)S(=O)(=O)c1ccc2nnn(OCCCOc3ccc(C(C)(C)C)cc3)c2c1 | > 10 | > 10 | –
7 | COCCCN1C(=O)N(Cc2ccc3ccccc3c2)C(=O)C12CCN(Cc1ccc(C)cc1)CC2 | > 6.8 | – | IC50 (PBLUC_HILL_SLOPE 3.14, PBLUC_R_SQUARED 0.039, read-out: LUCIFERASE INFECTION ASSAY - IC50): 4.02 µM
8 | COc1cccc2sc(NC(=O)C3CCN(C(C)=O)CC3)nc12 | > 10 | > 10 | –
9 | Cc1ccc2nc(NC(=O)c3cccc(Cl)c3)c(C(=O)NCC(C)C)n2c1 | 1.3 | – | IC50 (FFLUC_HILL_SLOPE 3.3, FFLUC_R_SQUARED 0.594, HEPG2TOX_HILL_SLOPE 1.2, HEPG2TOX_R_SQUARED 0.909, PBLUC_HILL_SLOPE 9.89, PBLUC_R_SQUARED 0.561, read-out: LUCIFERASE INFECTION ASSAY - IC50): 1.04 µM
10 | Fc1ccc(COc2ccc3ccccc3c2CNCc2ccccn2)cc1 | > 8.86 | – | IC50 (PBLUC_HILL_SLOPE 18.6, PBLUC_R_SQUARED 0.616, read-out: LUCIFERASE INFECTION ASSAY - IC50): 8.21 µM
11 | CN(C)C(=O)c1ccc(-c2cc3c(Nc4cccc(OC(F)(F)F)c4)nccc3[nH]2)cc1 | > 10 | – | IC50 (HEPG2TOX_HILL_SLOPE 8.24, HEPG2TOX_R_SQUARED 0.393, PBLUC_HILL_SLOPE 3.02, PBLUC_R_SQUARED 0.574, read-out: LUCIFERASE INFECTION ASSAY - IC50): 4.92 µM
12 | Cc1ccsc1/C=C/c1ccc2cccc(O)c2n1 | > 10 | – | IC50 (PBLUC_HILL_SLOPE 14, PBLUC_R_SQUARED 0.406, read-out: LUCIFERASE INFECTION ASSAY - IC50): 9.41 µM
13 | O=C(Nc1ccc(Oc2ccccc2)cc1)c1csc(C(O)c2ccccc2)n1 (stereo unspecified) | 7.41 | 1.63 | –
14 | CCCCCc1ccc(NC(=O)NC2=NCCS2)cc1 | > 11.3 | > 11.3 | –
15 | O=C(Nc1ccc2c(c1)OCO2)c1cnc(N2CCN(Cc3ccc(Cl)cc3)C2=O)o1 | > 10 | – | IC50 (PBLUC_HILL_SLOPE 1.65, PBLUC_R_SQUARED 0.722, read-out: LUCIFERASE INFECTION ASSAY - IC50): 3.79 µM
16 | Cc1nc(C(=O)NNC(=O)c2ccc(Cl)cc2)cs1 | > 11.2 | – | IC50 (PBLUC_HILL_SLOPE 2.52, PBLUC_R_SQUARED 0.734, read-out: LUCIFERASE INFECTION ASSAY - IC50): > 11.2 µM
17 | CS(=O)(=O)c1ccc(Oc2ccc(-n3ccnc3)cc2)c([N+](=O)[O-])c1 | > 10 | > 10 | –
18 | CC(C)(C)c1ccccc1NC(=O)c1csc(N2CCN(CCc3ccccc3)C2=O)n1 | > 10 | – | IC50 (PBLUC_HILL_SLOPE 20.4, PBLUC_R_SQUARED 0.59, read-out: LUCIFERASE INFECTION ASSAY - IC50): 9.01 µM
19 | COc1ccc(-c2nnc(Nc3ccc4c(c3)c(=O)n(C)n4CC=C(C)C)[nH]2)cc1 | > 8.16 | > 8.16 | –
20 | CCC(NC(=O)NCc1ccccc1S(=O)(=O)N1CCCCC1)c1ccc(Cl)cc1 (stereo unspecified) | > 10 | – | IC50 (PBLUC_HILL_SLOPE 1.14, PBLUC_R_SQUARED 0.117, read-out: LUCIFERASE INFECTION ASSAY - IC50): > 10 µM
21 | c1ccc(-c2cn3nc(N4CCN(Cc5cn6ccccc6n5)CC4)sc3n2)cc1 | 6.12 | – | IC50 (FFLUC_HILL_SLOPE 1.63, FFLUC_R_SQUARED 0.146, PBLUC_HILL_SLOPE 1.5, PBLUC_R_SQUARED 0.683, read-out: LUCIFERASE INFECTION ASSAY - IC50): 1.42 µM
22 | COc1ccc(C2(c3ccc(OC)cc3)NC(=O)N(CC(=O)c3cc(C)n(C4CC4)c3C)C2=O)cc1 | > 10 | – | IC50 (PBLUC_HILL_SLOPE 10.1, PBLUC_R_SQUARED 0.388, read-out: LUCIFERASE INFECTION ASSAY - IC50): 8.48 µM

Row | SMILES | IC90 [µM] | IC50 [1] [µM] | also measured
23 | COc1ccc(O)c(/C=N/NC(=O)c2ccc(CSc3nc(C)cc(C)n3)cc2)c1 | 4.88 | – | IC50 (FFLUC_HILL_SLOPE 9.54, FFLUC_R_SQUARED 0.0205, HEPG2TOX_HILL_SLOPE 2.18, HEPG2TOX_R_SQUARED 0.934, PBLUC_HILL_SLOPE 9.18, PBLUC_R_SQUARED 0.547, read-out: LUCIFERASE INFECTION ASSAY - IC50): 3.84 µM
24 | CN(C)CCNC(=O)c1cccc(-c2cnc3c(NC=O)cc(-c4cccc(C(F)(F)F)c4)cn23)c1 | > 6.66 | > 6.66 | –
25 | O=C(Nc1ccc(F)cc1)c1nnsc1S(=O)(=O)c1ccc(Cl)cc1 | > 8.29 | 6.54 | –
26 | O=S(=O)(c1ccc(Cl)cc1)c1nc(/C=C/c2ccccc2)oc1NCc1ccco1 | 9.82 | – | IC50 (PBLUC_HILL_SLOPE 32.9, PBLUC_R_SQUARED 0.0875, read-out: LUCIFERASE INFECTION ASSAY - IC50): 9.18 µM
27 | CCN(CC)CCNC(=O)c1ccc(NC(=O)c2cccc(S(=O)(=O)N3CCc4ccccc43)c2)cc1 | > 10 | – | IC50 (PBLUC_HILL_SLOPE 8.86, PBLUC_R_SQUARED 0.0114, read-out: LUCIFERASE INFECTION ASSAY - IC50): > 10 µM
28 | O=C(N/N=C1/C(=O)c2cccc3cccc1c23)c1cccc(S(=O)(=O)N2CCCCC2)c1 | > 10 | > 10 | –
29 | COc1ccc2c(c1)nnc1nnc(SCC(=O)N3CCOCC3)n12 | > 9.16 | > 9.16 | –
30 | Clc1ccc(SCc2cc(N3CCCC3)nc(-c3ccccn3)n2)cc1 | 2.94 | – | IC50 (HEPG2TOX_HILL_SLOPE 2.23, HEPG2TOX_R_SQUARED 0.944, PBLUC_HILL_SLOPE 20.5, PBLUC_R_SQUARED 0.394, read-out: LUCIFERASE INFECTION ASSAY - IC50): 2.64 µM
31 | COc1cc2c(cc1OC)CN(CCNc1ncnc3sccc13)CC2 | > 10 | – | IC50 (HEPG2TOX_HILL_SLOPE 2.69, HEPG2TOX_R_SQUARED 0.552, PBLUC_HILL_SLOPE 1.83, PBLUC_R_SQUARED 0.419, read-out: LUCIFERASE INFECTION ASSAY - IC50): 3.93 µM
32 | CCCNC(=O)c1csc(C(O)c2ccc(C(C)(C)C)cc2)n1 (stereo unspecified) | > 10 | – | IC50 (HEPG2TOX_HILL_SLOPE 2.18, HEPG2TOX_R_SQUARED 0.794, read-out: LUCIFERASE INFECTION ASSAY - IC50): > 10 µM
33 | Cc1nn(C(C)(C)C)c2c1C(c1ccc3c(c1)OCO3)C1C(=O)CC(C)(C)CC1=N2 (stereo unspecified) | > 10 | – | IC50 (HEPG2TOX_HILL_SLOPE 2.55, HEPG2TOX_R_SQUARED 0.436, read-out: LUCIFERASE INFECTION ASSAY - IC50): > 10 µM
34 | CC(C)n1ncc2cc(C(=O)Nc3cccc4c3CCCC4)cnc21 | 8.92 | – | IC50 (HEPG2TOX_HILL_SLOPE 1.91, HEPG2TOX_R_SQUARED 0.864, PBLUC_HILL_SLOPE 1.61, PBLUC_R_SQUARED 0.644, read-out: LUCIFERASE INFECTION ASSAY - IC50): 2.28 µM
35 | O=C(Nc1cc(C(F)(F)F)cc(C(F)(F)F)c1)c1cc2ccccc2s1 | > 8.48 | – | IC50 (PBLUC_HILL_SLOPE 0.25, PBLUC_R_SQUARED 0.0524, read-out: LUCIFERASE INFECTION ASSAY - IC50): > 8.48 µM
36 | CCOc1ccc2nc(NC(=O)C3Cc4ccccc4CN3S(=O)(=O)c3ccc(C)cc3)sc2c1 (stereo unspecified) | > 10 | > 10 | –
37 | O=C1CCCN1c1ccc(S(=O)(=O)Oc2ccc(Cl)cc2)cc1 | 2.91 | – | IC50 (HEPG2TOX_HILL_SLOPE 0.952, HEPG2TOX_R_SQUARED 0.945, PBLUC_HILL_SLOPE 2.14, PBLUC_R_SQUARED 0.73, read-out: LUCIFERASE INFECTION ASSAY - IC50): 1.04 µM
38 | CCCCCC1C(O)CC(c2ccccc2)N(C)C1c1ccccc1 (stereo unspecified) | > 9.78 | > 9.78 | –
39 | Cc1sc2ncnc(N3CCC(C(=O)N(CC(C)C)c4nc5ccccc5s4)CC3)c2c1C | > 10 | – | IC50 (PBLUC_HILL_SLOPE 1.15, PBLUC_R_SQUARED 0.711, read-out: LUCIFERASE INFECTION ASSAY - IC50): 4.09 µM
40 | CN(C)CC(=O)N1CCN(c2nc(/C=C/c3ccccc3)nc3sc4c(c23)CCCC4)CC1 | 5.01 | – | IC50 (PBLUC_HILL_SLOPE 3.64, PBLUC_R_SQUARED 0.565, read-out: LUCIFERASE INFECTION ASSAY - IC50): 2.74 µM
41 | CC1CCN(S(=O)(=O)c2ccc(C(=O)Nc3ncccc3O)cc2)CC1 | > 10 | – | IC50 (PBLUC_HILL_SLOPE 2.15, PBLUC_R_SQUARED 0.503, read-out: LUCIFERASE INFECTION ASSAY - IC50): 4.81 µM
42 | O=C(CCn1cnc([N+](=O)[O-])c1)Nc1nc(-c2ccccc2)c(-c2ccccc2)s1 | 7.85 | – | IC50 (FFLUC_HILL_SLOPE 11.3, FFLUC_R_SQUARED 0.217, PBLUC_HILL_SLOPE 4.55, PBLUC_R_SQUARED 0.65, read-out: LUCIFERASE INFECTION ASSAY - IC50): 4.84 µM
43 | COc1cc(OC)cc(-c2cnc3cnc(-c4ccccc4N(C)C)cn23)c1 | 3.18 | – | IC50 (HEPG2TOX_HILL_SLOPE 1.54, HEPG2TOX_R_SQUARED 0.879, PBLUC_HILL_SLOPE 8.17, PBLUC_R_SQUARED 0.657, read-out: LUCIFERASE INFECTION ASSAY - IC50): 2.43 µM

Reference: ChEMBL document CHEMBL4483862, “Open-source discovery of chemical leads for next-generation chemoprotective antimalarials” (2018)
